What was measured:
Type in all cases: cell-based
Akt1 = biological target: T1, Akt1 (Homo sapiens, UniProt P31749); experiment: In-gel fluorescence assay (Cy5-azide click) of covalent labeling in transfected HEK293T cells; details: 5 μM, 48 hours
T1 construct: expressed in transfected cells; host or cells: HEK293T
Description: (§1) Overexpressed Akt proteins were labeled with Cy5-small-molecule-fluorophore-conjugated azide (Cy5-azide) using standard click chemistry. FIG. 16A top gel is an image showing Cy5 channel (used to evaluate the extent of covalent binding on each Akt protein). The lysate from non-transfected HEK 293T cells was also used for comparison. M, molecular weight ladder. […] FIG. 16B top gel is an image showing Cy5 channel. M is a molecular weight ladder. FIG. 16B bottom is an image showing western blots probing Halo and actin, respectively. […] Error bars designate s.d. […] Normalized fluorescent signal (NFS) was calculated from the following equation: NFS=[(Cy5(X μM drug)−Cy5(No transfection))/Halo(X μM drug)]÷[(Cy5(no drug)−Cy5(No transfection))/Halo(no drug)]. The relative fluorescent signal (RFS) is calculated from the following equation: RFS=(Cy5(X μM drug)/Halo(X μM drug)) (Cy5(no drug)/Halo(no drug))
(§2) Cell transfection with the designated plasmid encoding a given HaloTag-Akt fusion gene was carried out following the general procedure described in Example 12. After 20-24 hours, the transfection media were aspirated and replaced with fresh 2 mL rinse MEM medium supplemented with 3% FBS containing the indicated concentration of inhibitor or the equivalent final volume of DMSO and the plates were incubated for the indicated period of time. […]

Akt3 C119S mutant = biological target: T2, Akt3 C119S mutant (Homo sapiens, UniProt Q9Y243, C119S); experiment: as above; details: 5 μM, 48 hours
T2 construct: expressed in transfected cells; host or cells: HEK293T
Description: as §1, §2

Akt2 (pT309) = biological target: T3, Akt2 (pT309) (Homo sapiens, UniProt P31751); experiment: Western blot and ratiometric ELISA of Akt phosphorylation in HEK293T cells; details: 5 μM, 48 hours
T3 construct: expressed in transfected cells; host or cells: HEK293T

T47D MK-2206-res = experiment: Cell viability assay (AlamarBlue), MK-2206-resistant line; details: 3 days
Experimental: After this time, cells were lysed and analyzed by antibodies for phosphorylated T305 (pT305) of Akt3, Halo (Akt), and Actin (loading control). […] FIG. 23F is a graph showing proliferation curves. […] After this time, the number of viable cells was calculated using AlamarBlue®. Proliferation curves were fitted to the PI50 equation (EQN. 4). […] FIG. 23H is a graph showing the percentage of viable cells. […] The percentage of growth relative to DMSO-treated cells is shown for the 48 hour point and the 72 hour point. FIG. 23I is a schematic showing the different methods used to derive the data in 23H.
(§3) Indicated cells were plated in a 96-well plate containing the DMEM complete medium (see Example 11 for complete medium formulation, 100 μL per well) with a density of 3,000-5,000 cells per well for 12 hours followed by the addition of varying concentrations of inhibitors in rinse medium (100 μL). The cells were allowed to grow for 72 hours and 100 μL of the culture medium was removed from each well. This was followed by the addition of 10 μL AlamarBlue® reagent to each well. The fluorescence emission signals at 590 nm were read by Cytation 3 cell imaging multi-mode reader (BioTeK) using an excitation wavelength of 560 nm. Curve fitting and data analysis were performed using Prism software.

BT-549 = experiment: Cell viability assay (AlamarBlue); details: BT-549, 72 hours
Experimental: (§4) FIGS. 22A and 22D are graphs showing results of cytotoxicity assays for MDA-MB-468 (FIG. 22A) and BT-549 (FIG. 22D). […] Stated cell lines were plated in 96-well plates (3000 cells per well) in the presence of the stated concentration of inhibitor. After 72 hours, the number of viable cells was analyzed by AlamarBlue®. Proliferation inhibition 50% (PI50) values were calculated by fitting data to “PI50 equation” (EQN 4) (FIG. 22C). MDA cells were transfected with the stated siRNA using lipofectamine 3000 for 12 hours. […] After 72 hours, the number of viable cells was calculated using AlamarBlue®. FIG. 22F is a schematic showing AlamarBlue® viability assay. […] MDA-MB-468 cells were treated with the stated drugs for 72 hours at the PI60 and PI80. After this time, cells were harvested, fixed/permeabilized with ethanol and DNA content was stained using propidium iodide (visualized in the 488-3 channel). RNA was removed simultaneously using RNAse. After 30 min at room temperature, cells were analyzed by flow cytometry.
as §3

MDA-MB-468 = experiment: Cell viability assay (AlamarBlue); details: MDA-MB-468, 72 hours
Experimental: as §4, §3

T2 sequence (Q9Y243 whole entry C119S): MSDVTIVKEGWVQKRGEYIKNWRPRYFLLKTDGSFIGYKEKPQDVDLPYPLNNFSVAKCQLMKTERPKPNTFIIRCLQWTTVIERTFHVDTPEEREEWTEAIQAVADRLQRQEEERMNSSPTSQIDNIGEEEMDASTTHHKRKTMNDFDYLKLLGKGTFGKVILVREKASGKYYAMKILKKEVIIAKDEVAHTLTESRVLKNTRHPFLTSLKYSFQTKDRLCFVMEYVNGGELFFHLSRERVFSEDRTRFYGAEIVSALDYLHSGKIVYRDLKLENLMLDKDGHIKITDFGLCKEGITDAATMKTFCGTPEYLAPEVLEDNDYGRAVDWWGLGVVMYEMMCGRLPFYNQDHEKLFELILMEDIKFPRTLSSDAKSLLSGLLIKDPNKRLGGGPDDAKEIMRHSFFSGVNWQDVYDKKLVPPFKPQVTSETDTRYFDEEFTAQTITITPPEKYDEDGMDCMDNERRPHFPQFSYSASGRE
T3 sequence (P31751 whole entry): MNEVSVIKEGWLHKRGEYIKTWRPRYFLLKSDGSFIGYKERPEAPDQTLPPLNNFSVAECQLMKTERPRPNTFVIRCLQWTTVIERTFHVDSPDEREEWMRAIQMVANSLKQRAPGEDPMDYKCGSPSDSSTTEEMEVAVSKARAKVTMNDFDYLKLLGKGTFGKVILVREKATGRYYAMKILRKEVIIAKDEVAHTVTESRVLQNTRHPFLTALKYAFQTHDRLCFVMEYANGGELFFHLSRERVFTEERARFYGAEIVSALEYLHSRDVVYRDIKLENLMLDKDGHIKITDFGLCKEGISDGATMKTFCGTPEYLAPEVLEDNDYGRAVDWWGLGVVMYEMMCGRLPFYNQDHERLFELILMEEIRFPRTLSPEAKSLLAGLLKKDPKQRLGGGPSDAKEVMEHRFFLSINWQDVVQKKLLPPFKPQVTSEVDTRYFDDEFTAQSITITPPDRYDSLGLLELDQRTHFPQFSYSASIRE
T1 sequence (P31749 whole entry): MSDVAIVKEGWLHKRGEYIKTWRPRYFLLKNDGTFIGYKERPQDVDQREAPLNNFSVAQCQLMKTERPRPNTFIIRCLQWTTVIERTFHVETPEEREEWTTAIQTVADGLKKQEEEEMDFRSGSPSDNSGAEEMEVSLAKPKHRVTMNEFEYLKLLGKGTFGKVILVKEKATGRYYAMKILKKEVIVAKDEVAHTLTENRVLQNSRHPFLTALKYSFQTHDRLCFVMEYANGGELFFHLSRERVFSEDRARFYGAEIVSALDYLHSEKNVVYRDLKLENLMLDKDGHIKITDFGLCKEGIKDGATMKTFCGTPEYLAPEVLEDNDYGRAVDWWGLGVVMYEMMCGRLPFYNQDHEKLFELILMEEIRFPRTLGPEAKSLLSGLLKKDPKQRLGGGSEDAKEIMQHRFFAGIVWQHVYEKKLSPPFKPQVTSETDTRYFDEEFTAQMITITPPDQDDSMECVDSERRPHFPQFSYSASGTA

SMILES	covalent inhibition of Akt1 isoform (Akt1)	covalent modification of C119S mutant of Akt3 (Akt3 C119S mutant)	phosphorylation level of Akt2 (Akt2 (pT309))	resistance of T47D MK-2206-res line (T47D MK-2206-res)	toxicity / potency relative to MK-2206 (BT-549)	toxicity / potency relative to MK-2206 (MDA-MB-468)
C#CCCCC(O)/C=C/C(=O)NC1(c2ccc(-c3nc4ccn5c(=O)[nH]nc5c4cc3-c3ccccc3)cc2)CCC1.Cl (stereo not drawn) [MK-HNE, (E)-8-(4-(1-(4-Hydroxynon-2-en-8-ynamido)cyclobutyl)phenyl)-3-oxo-9-phenyl-2,3-dihydro-[1,2,4]triazolo[3,4-f][1,6]naphthyridin-7-ium Chloride]	no covalent inhibition	no covalent modification	did not affect phosphorylation levels	–	–	–
C#CCCCC(F)/C=C/C(=O)NC1(c2ccc(-c3nc4ccn5c(=O)[nH]nc5c4cc3-c3ccccc3)cc2)CCC1.Cl (stereo not drawn) [MK-FNE, (E)-8-(4-(1-(4-Fluoronon-2-en-8-ynamido)cyclobutyl)phenyl)-3-oxo-9-phenyl-2,3-dihydro-[1,2,4]triazolo[3,4-f][1,6]naphthyridin-7-ium Chloride]	–	–	–	significantly less resistant	similarly potent to MK-2206	similarly potent to MK-2206

Reference: patent US20200148682A1, “AKT ISOZYME-SPECIFIC COVALENT INHIBITORS DERIVED FROM REDOX-SIGNALING LIPIDS” (Cornell University, priority 2017, published 2020)
